{
  "source": "paper PMC6349357",
  "about": "“Computational and experimental analysis of bioactive peptide linear motifs in the integrin adhesome” (PLoS ONE, 2019)",
  "key": {"resting platelets": {"system": "resting platelets", "assay": "Platelet aggregation induced by peptide in resting washed platelets (activation)", "type": "cell-based, human (healthy volunteers)", "settings": "for Activation: platelet aggregation in resting platelets after 6 minutes incubation with peptide, pal-peptides 20 μM, tat-peptides 50 μM, optical density, aggregometer, mean, n>=3; for Aggregation before TRAP activation, donor h: replicate donor h; for Aggregation before TRAP activation, donor h / Aggregation before TRAP activation, donor i / Aggregation before TRAP activation, donor j: pal 20 μM, tat 50 μM; for Aggregation before TRAP activation, donor i: replicate donor i; for Aggregation before TRAP activation, donor j: replicate donor j; for Activation, 5μM / Activation, 20μM: S3 Table, n=3; for Activation, 5μM: peptide 5 μM; for Activation, 20μM: peptide 20 μM", "experimental": "(§1) Blood was drawn from healthy volunteers into a syringe containing a final volume of 15% Acid Citrate Dextrose (ACD). The blood/ACD mixture was then aliquoted into 15 ml Cellstar tubes, at volumes of 5ml per tube, and centrifuged at 150 rcf for 10 minutes to obtain platelet rich plasma (PRP). PRP was then transferred to a 50ml tube using a pipette. The pH was then adjusted to 6.5. Prostaglandin (PGE1) was then added with a final concentration of 1μM. The PRP was then centrifuged at 750 rcf. After centrifugation the platelet poor plasma (PPP) was discarded and the pellet was resuspended in buffer A (6 mM dextrose, 130 mM NaCl, 9 mM NaHCO3, 10 mM sodium citrate, 10 mM Tris base, 3 mM KCl, 0.81 mM KH2PO4 and 0.9 mM MgCl26H2O, pH 7.4). A platelet concentration of 3x10^5/μl or 1x10^6/μl was obtained by dilution depending on the experiment in which they were used. Platelets were left to rest for 45 minutes and supplemented with 1.8mM calcium chloride prior to use.\n(§2) A platelet concentration of 3x10^5 /μl was used when performing standard aggregations and a concentration of 1x10^6 /μl was used for sample preparation for western blot analysis. The extent of platelet aggregation was measured by quantifying the optical density of the samples using the Bio-Data PAP-8 aggregometer (platelet aggregation profiler, Horsham, PA, USA). A temperature of 37°C was maintained and samples were stirred using magnets spinning at 1100 rpm. 200 μl of washed platelets was added to each aggregation tube. Different volumes of buffer, peptide and TRAP were added to achieve the desired concentrations. Peptide/buffer was added to each well after two minutes. TRAP, with a final concentration depending on the experiment, was added 6 minutes later and data was collected for an additional 7 minutes."}, "TRAP-activated platelets": {"system": "TRAP-activated platelets", "assay": "Inhibition of TRAP-induced platelet aggregation after pre-incubation with peptide", "type": "cell-based, human (healthy volunteers)", "settings": "for Aggregation after TRAP activation, donor h: replicate donor h; for Aggregation after TRAP activation, donor h / Aggregation after TRAP activation, donor i / Aggregation after TRAP activation, donor j: pal 20 μM, tat 50 μM; for Aggregation after TRAP activation, donor i: replicate donor i; for Aggregation after TRAP activation, donor j: replicate donor j", "experimental": "as §1, §2"}, "[1]": {"settings": "platelet aggregation induced by 4 μM TRAP in platelets pre-incubated with peptide (low value = inhibition), pal-peptides 20 μM, tat-peptides 50 μM, mean, n>=3"}, "[2]": {"settings": "S3 Table, peptide 5 μM, aggregation after TRAP, n=3"}, "[3]": {"settings": "S3 Table, peptide 20 μM, aggregation after TRAP, n=3"}},
  "data": [
    {"substance": "SSTLSKKRPPPPPPGHKRTLSD-tat-(NH2) [AMAP1-tat, ASAP1/DDEF2 peptide with C-terminal tat]", "values": [
      {"measurement": "Activation", "setting": "resting platelets; unit assumed", "value": 4, "unit": "%"},
      {"measurement": "Aggregation before TRAP activation, donor h", "setting": "resting platelets", "value": 4},
      {"measurement": "Aggregation before TRAP activation, donor i", "setting": "resting platelets", "value": 3},
      {"measurement": "Aggregation before TRAP activation, donor j", "setting": "resting platelets", "value": 5},
      {"measurement": "Platelet aggregation remaining after TRAP (low = inhibition)", "setting": "TRAP-activated platelets; [1]", "value": 72},
      {"measurement": "Aggregation after TRAP activation, donor h", "setting": "TRAP-activated platelets; TRAP 4 μM", "value": 76},
      {"measurement": "Aggregation after TRAP activation, donor i", "setting": "TRAP-activated platelets; TRAP 4 μM", "value": 62},
      {"measurement": "Aggregation after TRAP activation, donor j", "setting": "TRAP-activated platelets; TRAP 4 μM", "value": 79}
    ]},
    {"substance": "YKDSMERDKGK [pal-SDC4_JM Control 1, scrambled control of pal-SDC4_JM, reference compound]", "values": [
      {"measurement": "Effects on activation of aggregation at 1, 5 and 20 μM", "setting": "resting platelets; S2 Fig A legend, three doses 1, 5, 20 μM", "value": "activatory effects"},
      {"measurement": "Activation, donor 14 06 13", "setting": "resting platelets; replicate 14_06_13, SDC4 peptides and controls, 20 μM, unit assumed", "value": 69, "unit": "%"},
      {"measurement": "Activation, donor 18_06_13", "setting": "resting platelets; replicate 18_06_13, SDC4 peptides and controls, 20 μM, in % (unit assumed)", "value": 68},
      {"measurement": "Activation, donor 20_06_13", "setting": "resting platelets; replicate 20_06_13, SDC4 peptides and controls, 20 μM, in % (unit assumed)", "value": 66},
      {"measurement": "Activation, donor 20 08 13", "setting": "resting platelets; replicate 20_08_13, SDC4 peptides and controls, 20 μM, unit assumed", "value": 70, "unit": "%"},
      {"measurement": "Activation, donor 22_08_13_DONOR1", "setting": "resting platelets; replicate 22_08_13_DONOR1, SDC4 peptides and controls, 20 μM", "value": 71},
      {"measurement": "Activation, donor 22_08_13_DONOR2", "setting": "resting platelets; replicate 22_08_13_DONOR2, SDC4 peptides and controls, 20 μM", "value": 65},
      {"measurement": "Summary of effects of SDC4-derived palmitylated peptides and scrambled controls, 20μM", "setting": "TRAP-activated platelets; S2 Table B / S2 Fig, 20 μM, activation of resting platelets and inhibition of aggregation induced by 4 μM TRAP, in words", "value": "Activator"},
      {"measurement": "Inhibition, donor 14_06_13", "setting": "TRAP-activated platelets; replicate 14_06_13, peptide 20 μM, TRAP 4 μM", "value": 76},
      {"measurement": "Inhibition, donor 18_06_13", "setting": "TRAP-activated platelets; replicate 18_06_13, peptide 20 μM, TRAP 4 μM", "value": 72},
      {"measurement": "Inhibition, donor 20_06_13", "setting": "TRAP-activated platelets; replicate 20_06_13, peptide 20 μM, TRAP 4 μM", "value": 71},
      {"measurement": "Inhibition, donor 20_08_13", "setting": "TRAP-activated platelets; replicate 20_08_13, peptide 20 μM, TRAP 4 μM", "value": 71},
      {"measurement": "Platelet aggregation remaining after TRAP (low = inhibition)", "setting": "TRAP-activated platelets; replicate 22_08_13_DONOR1, peptide 20 μM, TRAP 4 μM", "value": 68},
      {"measurement": "Platelet aggregation remaining after TRAP (low = inhibition)", "setting": "TRAP-activated platelets; replicate 22_08_13_DONOR2, peptide 20 μM, TRAP 4 μM", "value": 70}
    ]},
    {"substance": "pal-FAKFEEERAR-(NH2) [pal-ITGB3_middle1, N-terminally palmitylated ITGB3 peptide …]", "values": [
      {"measurement": "Activation, 5μM", "setting": "resting platelets; unit assumed", "value": 2, "unit": "%"},
      {"measurement": "Activation, 20μM", "setting": "resting platelets; unit assumed", "value": 2, "unit": "%"},
      {"measurement": "Activation", "setting": "resting platelets; unit assumed", "value": 0, "unit": "%"},
      {"measurement": "Aggregation before TRAP activation, donor h", "setting": "resting platelets", "value": 1},
      {"measurement": "Aggregation before TRAP activation, donor i", "setting": "resting platelets", "value": 1},
      {"measurement": "Aggregation before TRAP activation, donor j", "setting": "resting platelets", "value": 0},
      {"measurement": "Platelet aggregation remaining after TRAP (low = inhibition)", "setting": "TRAP-activated platelets; [2]", "value": 73},
      {"measurement": "Platelet aggregation remaining after TRAP (low = inhibition)", "setting": "TRAP-activated platelets; [3]", "value": 68},
      {"measurement": "Aggregation after TRAP, peptide alone 1x (A 1x / B 1x)", "setting": "TRAP-activated platelets; TRAP 2 μM after 6 minutes pre-incubation, 4 μM pal-peptides, 10 μM tat-peptides, mean n = 3", "value": 67.67},
      {"measurement": "Aggregation after TRAP, peptide alone 2x (A 2x / B 2x)", "setting": "TRAP-activated platelets; TRAP 2 μM after 6 minutes pre-incubation, double concentration of 4 μM (pal) / 10 μM (tat), mean n = 3", "value": 43.67},
      {"measurement": "Platelet aggregation remaining after TRAP (low = inhibition)", "setting": "TRAP-activated platelets; [1]", "value": 45},
      {"measurement": "Aggregation after TRAP activation, donor h", "setting": "TRAP-activated platelets; TRAP 4 μM", "value": 64},
      {"measurement": "Aggregation after TRAP activation, donor i", "setting": "TRAP-activated platelets; TRAP 4 μM", "value": 60},
      {"measurement": "Aggregation after TRAP activation, donor j", "setting": "TRAP-activated platelets; TRAP 4 μM", "value": 12}
    ]},
    {"substance": "pal-KVGAAKR [pal-ITGA2bJM2]", "values": [
      {"measurement": "Activation, 5μM", "setting": "resting platelets; unit assumed", "value": 1, "unit": "%"},
      {"measurement": "Activation, 20μM", "setting": "resting platelets; unit assumed", "value": 1, "unit": "%"},
      {"measurement": "Platelet aggregation remaining after TRAP (low = inhibition)", "setting": "TRAP-activated platelets; [2]", "value": 28},
      {"measurement": "Platelet aggregation remaining after TRAP (low = inhibition)", "setting": "TRAP-activated platelets; [3]", "value": 3}
    ]},
    {"substance": "pal-KVGAAKR-FAKFEEERAR [B14p ITGA2b-JM2 U ITGB3-middle1, palmitylated chimeric peptide]", "values": [
      {"measurement": "Activation, 5μM", "setting": "resting platelets; unit assumed", "value": 2, "unit": "%"},
      {"measurement": "Activation, 20μM", "setting": "resting platelets; unit assumed", "value": 0, "unit": "%"},
      {"measurement": "Platelet aggregation remaining after TRAP (low = inhibition)", "setting": "TRAP-activated platelets; [2]", "value": 71},
      {"measurement": "Platelet aggregation remaining after TRAP (low = inhibition)", "setting": "TRAP-activated platelets; [3]", "value": 3}
    ]},
    {"substance": "pal-KVGAAKR-LGKKPIYKK [B19p ITGA2b-JM2 U SDC4-middle, palmitylated chimeric peptide]", "values": [
      {"measurement": "Activation, 5μM", "setting": "resting platelets; unit assumed", "value": 2, "unit": "%"},
      {"measurement": "Activation, 20μM", "setting": "resting platelets; unit assumed", "value": 3, "unit": "%"},
      {"measurement": "Platelet aggregation remaining after TRAP (low = inhibition)", "setting": "TRAP-activated platelets; [2]", "value": 66},
      {"measurement": "Platelet aggregation remaining after TRAP (low = inhibition)", "setting": "TRAP-activated platelets; [3]", "value": 6}
    ]},
    {"substance": "pal-KVGAAKR-RMKKKDEGSYD [B16p ITGA2b-JM U SDC4-JM, palmitylated chimeric peptide]", "values": [
      {"measurement": "Activation, 5μM", "setting": "resting platelets; unit assumed", "value": 3, "unit": "%"},
      {"measurement": "Activation, 20μM", "setting": "resting platelets; unit assumed", "value": 0, "unit": "%"},
      {"measurement": "Platelet aggregation remaining after TRAP (low = inhibition)", "setting": "TRAP-activated platelets; [2]", "value": 72},
      {"measurement": "Platelet aggregation remaining after TRAP (low = inhibition)", "setting": "TRAP-activated platelets; [3]", "value": 4}
    ]},
    {"substance": "pal-KVGAAKR-TLELDRLMASLS [B21p ITGA2b-JM2 U TGFB1I1-LD, palmitylated chimeric peptide]", "values": [
      {"measurement": "Activation, 5μM", "setting": "resting platelets; unit assumed", "value": 2, "unit": "%"},
      {"measurement": "Activation, 20μM", "setting": "resting platelets; unit assumed", "value": 1, "unit": "%"},
      {"measurement": "Platelet aggregation remaining after TRAP (low = inhibition)", "setting": "TRAP-activated platelets; [2]", "value": 70},
      {"measurement": "Platelet aggregation remaining after TRAP (low = inhibition)", "setting": "TRAP-activated platelets; [3]", "value": 28}
    ]}
  ]
}
